Test results as given in the supplement of paper PMC10307832.

Key:
Assay in all cases: relative viability (nuclei count vs DMSO), 5 days (fraction); higher = more cells survive
FG-4592 + Decitabine = compound: Cc1nc(C(=O)NCC(=O)O)c(O)c2ccc(Oc3ccccc3)cc12 [FG-4592] + Nc1ncn([C@H]2C[C@H](O)[C@@H](CO)O2)c(=O)n1 [Decitabine] (partner 2 µM)
Outline: (§1)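 Dosing by pin tool came one day after lung cancer cell lines were seeded in 1536-well plates, using either one drug or a fixed anchor-drug dose plus five library-drug doses (not always all listed) in √10 steps. After 5 days, nuclei were counted on 4× images. Relative viability is treated-well nuclei count divided by vehicle-well nuclei count, and values are medians of duplicate plates.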

FG-4592 + Phenformin = compound: Cc1nc(C(=O)NCC(=O)O)c(O)c2ccc(Oc3ccccc3)cc12 [FG-4592] + N=C(N)NC(=N)NCCc1ccccc1 [Phenformin] (partner 250 µM)
Outline: as §1

FG-4592 + Tozasertib = compound: Cc1nc(C(=O)NCC(=O)O)c(O)c2ccc(Oc3ccccc3)cc12 [FG-4592] + Cc1cc(Nc2cc(N3CCN(C)CC3)nc(Sc3ccc(NC(=O)C4CC4)cc3)n2)n[nH]1 [Tozasertib] (partner 0.1 µM)
Outline: as §1

IU1-47 + Navitoclax = compound: CC1=CC(=C(N1C2=CC=C(C=C2)Cl)C)C(=O)CN3CCCCC3 [IU1-47] + CC1(C)CCC(c2ccc(Cl)cc2)=C(CN2CCN(c3ccc(C(=O)NS(=O)(=O)c4ccc(N[C@H](CCN5CCOCC5)CSc5ccccc5)c(S(=O)(=O)C(F)(F)F)c4)cc3)CC2)C1 [Navitoclax] (partner 0.5 µM)
Outline: as §1

**Q.** With UMC-11 as the cell line, how does the relative viability (FG-4592 + Decitabine; first compound 0.08 µM) read?
**A.** 0.54

**Q.** And the relative viability (FG-4592 + Decitabine; first compound 0.253 µM)?
**A.** 0.604

**Q.** And the relative viability (FG-4592 + Decitabine; first compound 0.8 µM)?
**A.** 0.532

**Q.** What about the relative viability (FG-4592 + Decitabine; first compound 2.53 µM) of the same cell line?
**A.** 0.423

**Q.** What about the relative viability (FG-4592 + Decitabine; first compound 8 µM) of the same cell line?
**A.** 0.365

**Q.** What about the relative viability (FG-4592 + Phenformin; first compound 0.08 µM) of the same cell line?
**A.** 0.323

**Q.** What about the relative viability (FG-4592 + Phenformin; first compound 0.253 µM) of the same cell line?
**A.** 0.291

**Q.** And the relative viability (FG-4592 + Phenformin; first compound 0.8 µM)?
**A.** 0.322

**Q.** And the relative viability (FG-4592 + Phenformin; first compound 2.53 µM)?
**A.** 0.314

**Q.** And the relative viability (FG-4592 + Phenformin; first compound 8 µM)?
**A.** 0.395

**Q.** What about the relative viability (FG-4592 + Tozasertib; first compound 0.08 µM) of the same cell line?
**A.** 0.217

**Q.** And the relative viability (FG-4592 + Tozasertib; first compound 0.253 µM)?
**A.** 0.184

**Q.** And the relative viability (FG-4592 + Tozasertib; first compound 0.8 µM)?
**A.** 0.199

**Q.** What about the relative viability (FG-4592 + Tozasertib; first compound 2.53 µM) of the same cell line?
**A.** 0.203

**Q.** What about the relative viability (FG-4592 + Tozasertib; first compound 8 µM) of the same cell line?
**A.** 0.198

**Q.** What about the relative viability (IU1-47 + Navitoclax; first compound 0.08 µM) of the same cell line?
**A.** 0.297

**Q.** What about the relative viability (IU1-47 + Navitoclax; first compound 0.253 µM) of the same cell line?
**A.** 0.315

**Q.** And the relative viability (IU1-47 + Navitoclax; first compound 0.8 µM)?
**A.** 0.329

**Q.** What about the relative viability (IU1-47 + Navitoclax; first compound 2.53 µM) of the same cell line?
**A.** 0.349

**Q.** What about the relative viability (IU1-47 + Navitoclax; first compound 8 µM) of the same cell line?
**A.** 0.313
